Our source for the melting point and Ki values is US6653300B2, “Pyrazole compounds useful as protein kinase inhibitors” (Vertex Pharmaceuticals Incorporated, priority 2000, dated 2003).

The structures appear in SMILES notation.

The target of one data set is T1, GSK-3β (AA 1-420) (Homo sapiens, UniProt P49841).
T1 construct: GSK-3β (AA 1-420)
As to the kind of experiment: Ki determination for the inhibition of GSK-3 (coupled enzyme system). It is filed as biochemical. The conditions noted are these: 20 μM ATP, 20 nM GSK-3β, 30° C. On the procedure: Compounds were screened for their ability to inhibit GSK-3β (AA 1-420) activity using a standard coupled enzyme system (Fox et al. (1998) Protein Sci. 7, 2249). Reactions were carried out in a solution containing 100 mM HEPES (pH 7.5), 10 mM MgCl2, 25 mM NaCl, 300 μM NADH, 1 mM DTT and 1.5% DMSO. Final substrate concentrations in the assay were 20 μM ATP (Sigma Chemicals, St Louis, Mo.) and 300 μM peptide (HSSPHQS (PO3H2) EDEEE, American Peptide, Sunnyvale, Calif.). Reactions were carried out at 30° C. and 20 nM GSK-3β. Final concentrations of the components of the coupled enzyme system were 2.5 mM phosphoenolpyruvate, 300 μM NADH, 30 μg/ml pyruvate kinase and 10 μg/ml lactate dehydrogenase.
An assay stock buffer solution was prepared containing all of the reagents listed above with the exception of ATP and the test compound of interest. The assay stock buffer solution (175 μl) was incubated in a 96 well plate with 5 μl of the test compound of interest at final concentrations spanning 0.002 μM to 30 μM at 30° C. for 10 min. […] The reaction was initiated by the addition of 20 μl of ATP (final concentration 20 μM). Rates of reaction were obtained using a Molecular Devices Spectramax plate reader (Sunnyvale, Calif.) over 10 min at 30° C. The Ki values were determined from the rate data as a function of inhibitor concentration.

T1 sequence (P49841 whole entry, the tested form may be a part): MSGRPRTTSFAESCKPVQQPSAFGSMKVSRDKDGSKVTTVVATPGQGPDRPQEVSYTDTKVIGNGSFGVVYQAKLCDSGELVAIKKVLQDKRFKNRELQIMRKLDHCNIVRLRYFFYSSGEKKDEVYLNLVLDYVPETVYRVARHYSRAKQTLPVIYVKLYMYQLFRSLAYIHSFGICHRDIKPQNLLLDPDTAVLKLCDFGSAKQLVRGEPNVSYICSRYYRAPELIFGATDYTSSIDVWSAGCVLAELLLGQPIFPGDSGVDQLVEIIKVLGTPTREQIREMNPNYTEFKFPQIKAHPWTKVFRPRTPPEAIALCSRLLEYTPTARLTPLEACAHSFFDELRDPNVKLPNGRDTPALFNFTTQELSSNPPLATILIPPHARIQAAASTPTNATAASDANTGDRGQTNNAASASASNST

Broadly, the melting point is the temperature, or range, at which the solid turns liquid. What is called Ki is the equilibrium dissociation constant of an inhibitor or competing ligand from its target. High values mean a looser hold on the target, low ones a stronger hold on the target. In turn, `COC(=O)c1cccc(Sc2nc(Nc3cc(C4CC4)[nH]n3)cc(-c3ccccc3)n2)c1` [IIIa-2, (5-Cyclopropyl-2H-pyrazol-3-yl)-[2-(3-methoxycarbonyl-phenylylsulfanyl)-6-phenylpyrimidin-4-yl]-amine] had a melting point of 126 to 129 °C. This compound also returned a Ki at GSK-3β (AA 1-420) of less than 100 nM.

Take `c1ccc2cc(Sc3nccc(Nc4cc(C5CC5)[nH]n4)n3)ccc2c1` [IIIa-3, (5-Cyclopropyl-2H-pyrazol-3-yl)-[2-(naphthalen-2-ylsulfanyl)-pyrimidin-4-yl]-amine]: the melting point fell in the range of 248 to 250 °C. Also, at GSK-3β (AA 1-420), the Ki was less than 100 nM.

In turn, `Cc1nc(Sc2ccc3ccccc3c2)nc(Nc2cc(C3CC3)[nH]n2)c1C` [IIIa-4, (5-Cyclopropyl-2H-pyrazol-3-yl)-[5,6-dimethyl-2-(naphthalen-2-ylsulfanyl)-pyrimidin-4-yl]-amine] had a melting point greater than 270 °C. At GSK-3β (AA 1-420), this compound showed an inhibition constant Ki of 100 to 1000 nM.

`Cc1cnc(Sc2ccc3ccccc3c2)nc1Nc1cc(C2CC2)[nH]n1` [IIIa-5, (5-Cyclopropyl-2H-pyrazol-3-yl)-[5-methyl-2-(naphthalen-2-ylsulfanyl)-pyrimidin-4-yl]-amine] gave a melting point of 197 °C. This compound gave an inhibitory constant (Ki) at GSK-3β (AA 1-420) of 100 to 1000 nM.

For `Cc1cc(Nc2cc(C3CC3)[nH]n2)nc(Sc2ccc3ccccc3c2)n1` [IIIa-6, (5-Cyclopropyl-2H-pyrazol-3-yl)-[6-methyl-2-(naphthalen-2-ylsulfanyl)-pyrimidin-4-yl]-amine], the melting point amounted to 232 °C. In addition, the Ki on GSK-3β (AA 1-420) is less than 100 nM.

On to `c1ccc2cc(Sc3nc(Nc4cc(C5CC5)[nH]n4)cc(N4CCOCC4)n3)ccc2c1` [IIIa-7, (5-Cyclopropyl-2H-pyrazol-3-yl)-[6-(morpholin-4-yl)-2-(naphthalen-2-ylsulfanyl)-pyrimidin-4-yl]-amine], for which the melting point was 118 to 120 °C. The same compound registered a Ki on GSK-3β (AA 1-420) of 100 to 1000 nM.

The compound `CN1CCN(c2cc(Nc3cc(C4CC4)[nH]n3)nc(Sc3ccc4ccccc4c3)n2)CC1` [IIIa-8, (5-Cyclopropyl-2H-pyrazol-3-yl)-[6-(1-methylpiperazin-4-yl)-2-(naphthalen-2-ylsulfanyl)-pyrimidin-4-yl]-amine] had a melting point of 113 to 115 °C. The compound also returned a Ki at GSK-3β (AA 1-420) of 100 to 1000 nM.

The compound `Cc1cc(Nc2cc(-c3ccccc3C)nc(Sc3ccc4ccccc4c3)n2)n[nH]1` [IIIa-10, [6-(2-Methylphenyl)-2-(naphthalen-2-ylsulfanyl)-pyrimidin-4-yl]-(5-methyl-2H-pyrazol-3-yl)-amine] yielded a melting point of 211 to 214 °C. The compound further gave a Ki at GSK-3β (AA 1-420) of 100 to 1000 nM.

For the compound `Cc1cc(Nc2cc(-c3ccccc3)nc(Sc3ccc4ccccc4c3)n2)n[nH]1` [IIIa-12, (5-Methyl-2H-pyrazol-3-yl)-[2-(naphthalen-2-ylsulfanyl)-6-phenyl-pyrimidin-4-yl]-amine], the melting point lay in the range of 237 to 239 °C.

Take `Cc1cc(Nc2cc(-c3ccccc3)nc(Sc3ccc(NC(=O)C4CC4)cc3)n2)n[nH]1` [IIIa-16, [2-(4-Cyclopropanecarbonylamino-phenylsulfanyl)-6-phenylpyrimidin-4-yl]-(5-methyl-2H-pyrazol-3-yl)-amine]: the melting point was in the range of 253 to 255 °C. This compound also yielded a Ki on GSK-3β (AA 1-420) of 1000 to 7000 nM.

Take `CCCS(=O)(=O)Nc1ccc(Sc2nc(Nc3cc(C)n[nH]3)cc(-c3ccccc3)n2)cc1` [IIIa-17, (5-Methyl-2H-pyrazol-3-yl)-{6-phenyl-2-[4-(propane-1-sulfonylamino)-phenylsulfanyl]-pyrimidin-4-yl}-amine]: the melting point lay within 232 to 235 °C. For the same compound, the Ki at GSK-3β (AA 1-420) was less than 100 nM.

For `CCS(=O)(=O)Nc1ccc(Sc2nc(Nc3cc(C)[nH]n3)cc(-c3ccccc3)n2)cc1` [IIIa-18, [2-(4-Ethanesulfonylamino-phenylsulfanyl)-6-phenyl-pyrimidin-4-yl]-(5-methyl-2H-pyrazol-3-yl)-amine], the melting point is 251 to 254 °C. On GSK-3β (AA 1-420), this compound gave a Ki of less than 100 nM.

Take `Cc1cc(Nc2cc(-c3ccccc3)nc(Sc3ccc(NC(=O)CC(C)C)cc3)n2)n[nH]1` [IIIa-20, [2-(4-Isobutanecarbonylamino-phenyl-sulfanyl)-6-phenyl-pyrimidin-4-yl]-(5-methyl-2H-pyrazol-3-yl)-amine]: the melting point fell in the range of 241 to 243 °C.

For `COc1ccc(-c2cc(Nc3cc(C)[nH]n3)nc(Sc3ccc(NC(C)=O)cc3)n2)cc1` [IIIa-22, [2-(4-Acetamido-phenyl-sulfanyl)-6-(4-methoxyphenyl)-pyrimidin-4-yl]-(5-methyl-2H-pyrazol-3-yl)-amine], the melting point fell in the range of 241 to 245 °C. The compound also registered a Ki at GSK-3β (AA 1-420) of 100 to 1000 nM.

The compound `CC(=O)Nc1ccc(Sc2nc(Nc3cc(C)[nH]n3)cc(-c3cccc(NC(C)=O)c3)n2)cc1` [IIIa-23, [6-(3-Acetamidophenyl)-2-(4-acetamido-phenyl-sulfanyl)-pyrimidin-4-yl]-(5-methyl-2H-pyrazol-3-yl)-amine] showed a melting point of 227 to 230 °C. At GSK-3β (AA 1-420), this compound registered a Ki of 100 to 1000 nM.

For `COCc1cc(Nc2cc(C)[nH]n2)nc(Sc2ccc(C(=O)OC)cc2)n1` [IIIa-39, [2-(4-Methoxycarbonyl-phenyl-sulfanyl)-6-methoxymethyl-pyrimidin-4-yl]-(5-methyl-2H-pyrazol-3-yl)-amine], the melting point is 204 to 205 °C.

`c1ccc(Nc2nc(Nc3cc(C4CC4)[nH]n3)cc(-c3ccccc3)n2)cc1` [IIIc-2, (5-Cyclopropyl-2H-pyrazol-3-yl)-(6-phenyl-2-phenylamino-pyrimidin-4-yl)-amine] returned a melting point of 267 to 269 °C.

For `Cc1cccc(Nc2nc(Nc3cc(C4CC4)[nH]n3)cc(-c3ccccc3)n2)c1` [IIIc-3, (5-Cyclopropyl-2H-pyrazol-3-yl)-[2-(3-methylphenylamino)-6-phenyl-pyrimidin-4-yl]-amine], the melting point is 267 to 270 °C.

`c1ccc(-c2cc(Nc3cc(C4CC4)[nH]n3)nc(NCc3cccnc3)n2)cc1` [IIIc-5, (5-Cyclopropyl-2H-pyrazol-3-yl)-[6-phenyl-2-(pyridin-3-ylmethylamino)-pyrimidin-4-yl]-amine] showed a melting point of 191 to 193 °C.

`Cc1cc(Nc2nc(Sc3nc4ccccc4[nH]3)nc3ccccc23)n[nH]1` [IIa-19, [2-(Benzimidazol-2-ylsulfanyl)-quinazolin-4-yl]-(5-methyl-2H-pyrazol-3-yl)-amine] yielded a melting point of 192 to 196 °C.

As for `c1ccc2c(Sc3nc(Nc4cc(C5CC5)n[nH]4)c4ccccc4n3)cccc2c1` [IIa-37, (5-Cyclopropyl-2H-pyrazol-3-yl)-[2-(naphthalen-1-ylsulfanyl)-quinazolin-4-yl]-amine], the melting point was in the range of 271 to 273 °C.

For the compound `CC(=O)Nc1ccc(Sc2nc(Nc3cc(C)n[nH]3)c3cccc(F)c3n2)cc1` [IIa-78, [2-(4-Acetamidophenylsulfanyl)-8-fluoro-quinazolin-4-yl]-(5-methyl-2H-pyrazol-3-yl)-amine], the melting point is 257 to 259 °C.

Compound `Cc1cc(Nc2nc(N(CCO)c3ccccc3)nc3ccccc23)n[nH]1` [IIc-1, {2-[(2-Hydroxyethyl)phenylamino]-quinazolin-4-yl}-(5-methyl-2H-pyrazol-3-yl)-amine] gave a melting point of 217 °C.

`Cc1cc(Nc2nc(Nc3ccc4cn[nH]c4c3)nc3ccccc23)n[nH]1` [IIc-9, [2-(1H-Indazol-6-ylamino)-quinazolin-4-yl]-(5-methyl-2H-pyrazol-3-yl)-amine] yielded a melting point greater than 250 °C.
